In ChEMBL document CHEMBL1201862, “PubChem BioAssay data set” (2004):
The source made the active and inactive calls.

Experiments:
[1] = target: Voltage-dependent T-type calcium channel subunit alpha-1H (Homo sapiens, UniProt O95180); assay type: functional;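 note: channel activity triggered by adding a high calcium stimulation buffer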
[2] = system: HEK293; test: NOD1 signaling inhibitors, primary screen, cell-based, luminescence, uHTS (AID 1578); assay type: functional; conditions: Homo sapiens
[3] = system: HEK293; test: cells; assay type: functional, cell-based; conditions: Homo sapiens
[4] = system: HEK293; test: cells; assay type: functional, cell-based; conditions: Homo sapiens; remark: listed apart in the source
[5] = target: Nucleotide-binding oligomerization domain-containing protein 2 (Homo sapiens, UniProt Q9HC29); test: NOD2 signaling inhibitors, cell-based, luminescence, uHTS, HEK293 (AID 1566); assay type: functional
[6] = system: HEK293; test: cells; assay type: functional, cell-based; conditions: Homo sapiens; remark: listed apart in the source
[7] = system: HEK293; test: NOD2 signaling inhibitors in MDP-stimulated cells, cell-based, uHTS, luminescence (AID 2001); assay type: functional; conditions: Homo sapiens
[8] = HEp-2 cell cytotoxicity, dose response, cytotoxicity control for RSV inhibitor project, HTS (AID 2410); assay type: functional; conditions: human respiratory syncytial virus
[9] = target: T1, Coagulation factor XII (Homo sapiens, UniProt P00748); assay type: functional;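 note: activated factor XIIa alpha cleaving a fluorogenic AMC peptide substrate; inhibitor potency from loss of enzyme activity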
T1 sequence (P00748 whole entry): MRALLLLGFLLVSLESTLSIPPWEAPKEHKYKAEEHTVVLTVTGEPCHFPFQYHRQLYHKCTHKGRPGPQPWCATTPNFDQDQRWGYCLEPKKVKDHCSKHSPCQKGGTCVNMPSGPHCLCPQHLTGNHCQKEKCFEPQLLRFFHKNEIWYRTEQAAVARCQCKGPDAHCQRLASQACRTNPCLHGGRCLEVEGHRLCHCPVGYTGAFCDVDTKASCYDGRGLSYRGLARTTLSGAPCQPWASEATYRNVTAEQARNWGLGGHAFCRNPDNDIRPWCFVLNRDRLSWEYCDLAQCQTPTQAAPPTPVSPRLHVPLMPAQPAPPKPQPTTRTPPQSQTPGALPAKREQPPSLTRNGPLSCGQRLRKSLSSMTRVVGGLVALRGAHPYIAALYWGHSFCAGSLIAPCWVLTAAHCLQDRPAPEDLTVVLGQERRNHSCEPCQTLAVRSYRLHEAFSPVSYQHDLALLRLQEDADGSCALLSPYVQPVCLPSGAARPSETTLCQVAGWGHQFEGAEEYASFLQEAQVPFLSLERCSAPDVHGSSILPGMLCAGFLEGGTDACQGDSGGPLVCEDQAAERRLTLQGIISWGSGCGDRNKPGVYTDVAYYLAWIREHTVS

[10] = target: Estrogen receptor beta (Homo sapiens, UniProt Q92731);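 note: recombinant ER-beta bound to coactivator SRC1 peptide in presence of estradiol agonist; inhibitors block coactivator peptide binding and lower the FRET signal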
[11] = target: Protein-tyrosine kinase 2-beta (Homo sapiens, UniProt Q14289);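 note: potency of inhibitors of PYK2 kinase phosphorylation of poly-GT substrate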
[12] = target: T2, Alkaline phosphatase, tissue-nonspecific isozyme (Homo sapiens, UniProt P05186); test: human TNAP enzyme inhibitors, SAR follow-up, biochemical, luminescent, dose response (AID 1056)
T2 sequence (P05186 whole entry): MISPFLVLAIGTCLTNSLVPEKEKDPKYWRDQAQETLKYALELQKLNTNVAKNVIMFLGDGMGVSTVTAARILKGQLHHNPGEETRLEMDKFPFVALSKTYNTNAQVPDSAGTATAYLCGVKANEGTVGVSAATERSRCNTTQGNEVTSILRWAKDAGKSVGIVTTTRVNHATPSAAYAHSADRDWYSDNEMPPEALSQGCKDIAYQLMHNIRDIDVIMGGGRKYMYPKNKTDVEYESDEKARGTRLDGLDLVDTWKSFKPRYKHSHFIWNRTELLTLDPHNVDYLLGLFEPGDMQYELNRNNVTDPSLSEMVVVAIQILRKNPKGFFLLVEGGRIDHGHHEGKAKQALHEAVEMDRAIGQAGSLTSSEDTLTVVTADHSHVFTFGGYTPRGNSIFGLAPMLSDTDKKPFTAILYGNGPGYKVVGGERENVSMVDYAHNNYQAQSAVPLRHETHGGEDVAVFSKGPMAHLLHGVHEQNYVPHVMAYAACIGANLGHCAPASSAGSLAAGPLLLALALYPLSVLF

[13] = target: Alkaline phosphatase, placental type (Homo sapiens, UniProt P05187); test: PLAP enzyme inhibitors, confirmation, biochemical, luminescence (AID 1512); assay type: functional
[14] = target: T3, Trace amine-associated receptor 1 (Homo sapiens, UniProt Q96RJ0); test: Fluorescence-based cell-based high throughput dose response assay to identify agonists of the human trace amine associated receptor 1 (TAAR1).; assay type: functional
T3 sequence (Q96RJ0 whole entry): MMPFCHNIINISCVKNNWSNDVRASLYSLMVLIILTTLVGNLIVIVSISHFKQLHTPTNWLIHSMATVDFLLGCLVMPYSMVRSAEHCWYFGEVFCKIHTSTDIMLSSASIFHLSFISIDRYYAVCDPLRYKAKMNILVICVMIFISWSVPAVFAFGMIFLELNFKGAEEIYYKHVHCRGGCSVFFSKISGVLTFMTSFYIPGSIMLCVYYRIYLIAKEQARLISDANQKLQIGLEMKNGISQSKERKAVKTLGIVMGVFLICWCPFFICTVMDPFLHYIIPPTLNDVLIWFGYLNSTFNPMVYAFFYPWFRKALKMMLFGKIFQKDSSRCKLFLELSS

[15] = cells; assay type: functional, cell-based
[16] = target: T3, Trace amine-associated receptor 1; test: Counterscreen for agonists of the human trace amine associated receptor 1 (hTAAR1): Fluorescence-based cell-based high throughput dose response assay to identify hTAAR1 agonist that also desensitize TAAR1 receptor response.; assay type: functional
[17] = cells; assay type: functional, cell-based; remark: listed apart in the source
[18] = HeLa 2N DNA content increase, dose response, cell-based, IC50 (AID 1117349); assay type: functional
[19] = HeLa 4N DNA content increase, dose response, cell-based, IC50 (AID 1117351); assay type: functional
[20] = system: Streptococcus sp. 'group A'; test: growth inhibition of control SK(-) GAS strain, dose response, counter-screen for streptokinase expression inhibitor project, luminescence, kanamycin, BacTiterGlo, confirmation (AID 1900); assay type: functional, organism-based
[21] = system: Streptococcus; test: Group A Streptococcus viability loss, dose response, counter-screen for streptokinase expression inhibitor project, luminescence, BacTiterGlo (AID 1915); assay type: functional, organism-based;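 note: potency for reduction of bacterial viability or growth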
[22] = system: INS1; test: beta cell apoptosis inhibitors, cytokine rescue, dose response, luminescence, retest (AID 449756); assay type: functional, cell-based; conditions: Rattus norvegicus;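 note: cell death triggered by IL-1 beta plus TNF-alpha plus IFN-gamma mixture; protective hits raise ATP signal compared with cytokine alone wells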
[23] = cells; assay type: functional, cell-based; remark: listed apart in the source
[24] = cells; assay type: functional, cell-based; remark: listed apart in the source
[25] = microbe, parasite or virus in culture; assay type: functional; conditions: Mycobacterium tuberculosis
[26] = target: Cytochrome P450 2C19 (Homo sapiens, UniProt P33261); test: Cytochrome panel assay with activity outcomes. Panel member name: p450-cyp2c19 Compounds with AC50 equal or less than 10 uM are considered active; assay type: functional

Sequence of Alkaline phosphatase, placental type (P05187 whole entry): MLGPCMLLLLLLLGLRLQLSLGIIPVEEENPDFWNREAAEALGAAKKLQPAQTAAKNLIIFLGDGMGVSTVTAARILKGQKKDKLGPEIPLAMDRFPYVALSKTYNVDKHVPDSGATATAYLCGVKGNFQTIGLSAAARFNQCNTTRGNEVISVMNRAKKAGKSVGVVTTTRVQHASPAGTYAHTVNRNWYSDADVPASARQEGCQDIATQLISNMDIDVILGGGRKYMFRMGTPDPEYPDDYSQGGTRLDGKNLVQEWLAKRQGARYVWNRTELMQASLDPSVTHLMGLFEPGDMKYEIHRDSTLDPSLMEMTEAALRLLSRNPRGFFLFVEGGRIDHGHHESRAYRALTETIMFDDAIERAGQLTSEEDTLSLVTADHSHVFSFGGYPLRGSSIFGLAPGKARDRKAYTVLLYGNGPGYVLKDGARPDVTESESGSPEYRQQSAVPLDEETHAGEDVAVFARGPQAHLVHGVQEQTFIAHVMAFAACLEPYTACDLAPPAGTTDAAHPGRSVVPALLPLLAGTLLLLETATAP
Sequence of Nucleotide-binding oligomerization domain-containing protein 2 (Q9HC29 whole entry, the tested form may be a part): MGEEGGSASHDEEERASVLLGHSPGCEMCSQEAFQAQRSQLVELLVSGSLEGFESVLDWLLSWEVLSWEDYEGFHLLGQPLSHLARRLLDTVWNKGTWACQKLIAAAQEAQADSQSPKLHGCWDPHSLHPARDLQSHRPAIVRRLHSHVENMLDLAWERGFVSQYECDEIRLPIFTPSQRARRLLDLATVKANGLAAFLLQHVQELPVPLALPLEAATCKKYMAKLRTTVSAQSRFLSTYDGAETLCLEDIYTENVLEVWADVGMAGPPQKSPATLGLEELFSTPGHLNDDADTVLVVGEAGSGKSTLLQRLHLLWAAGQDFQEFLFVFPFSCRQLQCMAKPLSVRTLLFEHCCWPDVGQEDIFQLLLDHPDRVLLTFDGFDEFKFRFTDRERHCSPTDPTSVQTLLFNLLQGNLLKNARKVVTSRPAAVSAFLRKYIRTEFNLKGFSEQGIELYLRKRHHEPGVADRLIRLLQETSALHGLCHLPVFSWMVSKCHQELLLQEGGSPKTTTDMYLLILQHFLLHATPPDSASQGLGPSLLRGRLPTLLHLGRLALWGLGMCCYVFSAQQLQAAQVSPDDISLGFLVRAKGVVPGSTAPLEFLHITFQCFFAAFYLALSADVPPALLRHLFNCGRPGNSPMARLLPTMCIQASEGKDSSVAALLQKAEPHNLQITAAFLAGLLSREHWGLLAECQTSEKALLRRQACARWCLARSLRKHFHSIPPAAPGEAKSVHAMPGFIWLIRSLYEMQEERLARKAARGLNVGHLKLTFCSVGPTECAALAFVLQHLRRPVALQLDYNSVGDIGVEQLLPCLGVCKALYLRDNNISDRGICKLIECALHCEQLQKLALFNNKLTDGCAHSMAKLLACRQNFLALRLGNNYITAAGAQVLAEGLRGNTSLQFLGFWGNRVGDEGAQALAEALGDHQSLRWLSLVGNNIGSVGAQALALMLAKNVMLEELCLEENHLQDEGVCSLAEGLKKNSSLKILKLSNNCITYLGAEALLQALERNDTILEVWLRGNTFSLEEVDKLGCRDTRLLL
Sequence of Voltage-dependent T-type calcium channel subunit alpha-1H (O95180 whole entry): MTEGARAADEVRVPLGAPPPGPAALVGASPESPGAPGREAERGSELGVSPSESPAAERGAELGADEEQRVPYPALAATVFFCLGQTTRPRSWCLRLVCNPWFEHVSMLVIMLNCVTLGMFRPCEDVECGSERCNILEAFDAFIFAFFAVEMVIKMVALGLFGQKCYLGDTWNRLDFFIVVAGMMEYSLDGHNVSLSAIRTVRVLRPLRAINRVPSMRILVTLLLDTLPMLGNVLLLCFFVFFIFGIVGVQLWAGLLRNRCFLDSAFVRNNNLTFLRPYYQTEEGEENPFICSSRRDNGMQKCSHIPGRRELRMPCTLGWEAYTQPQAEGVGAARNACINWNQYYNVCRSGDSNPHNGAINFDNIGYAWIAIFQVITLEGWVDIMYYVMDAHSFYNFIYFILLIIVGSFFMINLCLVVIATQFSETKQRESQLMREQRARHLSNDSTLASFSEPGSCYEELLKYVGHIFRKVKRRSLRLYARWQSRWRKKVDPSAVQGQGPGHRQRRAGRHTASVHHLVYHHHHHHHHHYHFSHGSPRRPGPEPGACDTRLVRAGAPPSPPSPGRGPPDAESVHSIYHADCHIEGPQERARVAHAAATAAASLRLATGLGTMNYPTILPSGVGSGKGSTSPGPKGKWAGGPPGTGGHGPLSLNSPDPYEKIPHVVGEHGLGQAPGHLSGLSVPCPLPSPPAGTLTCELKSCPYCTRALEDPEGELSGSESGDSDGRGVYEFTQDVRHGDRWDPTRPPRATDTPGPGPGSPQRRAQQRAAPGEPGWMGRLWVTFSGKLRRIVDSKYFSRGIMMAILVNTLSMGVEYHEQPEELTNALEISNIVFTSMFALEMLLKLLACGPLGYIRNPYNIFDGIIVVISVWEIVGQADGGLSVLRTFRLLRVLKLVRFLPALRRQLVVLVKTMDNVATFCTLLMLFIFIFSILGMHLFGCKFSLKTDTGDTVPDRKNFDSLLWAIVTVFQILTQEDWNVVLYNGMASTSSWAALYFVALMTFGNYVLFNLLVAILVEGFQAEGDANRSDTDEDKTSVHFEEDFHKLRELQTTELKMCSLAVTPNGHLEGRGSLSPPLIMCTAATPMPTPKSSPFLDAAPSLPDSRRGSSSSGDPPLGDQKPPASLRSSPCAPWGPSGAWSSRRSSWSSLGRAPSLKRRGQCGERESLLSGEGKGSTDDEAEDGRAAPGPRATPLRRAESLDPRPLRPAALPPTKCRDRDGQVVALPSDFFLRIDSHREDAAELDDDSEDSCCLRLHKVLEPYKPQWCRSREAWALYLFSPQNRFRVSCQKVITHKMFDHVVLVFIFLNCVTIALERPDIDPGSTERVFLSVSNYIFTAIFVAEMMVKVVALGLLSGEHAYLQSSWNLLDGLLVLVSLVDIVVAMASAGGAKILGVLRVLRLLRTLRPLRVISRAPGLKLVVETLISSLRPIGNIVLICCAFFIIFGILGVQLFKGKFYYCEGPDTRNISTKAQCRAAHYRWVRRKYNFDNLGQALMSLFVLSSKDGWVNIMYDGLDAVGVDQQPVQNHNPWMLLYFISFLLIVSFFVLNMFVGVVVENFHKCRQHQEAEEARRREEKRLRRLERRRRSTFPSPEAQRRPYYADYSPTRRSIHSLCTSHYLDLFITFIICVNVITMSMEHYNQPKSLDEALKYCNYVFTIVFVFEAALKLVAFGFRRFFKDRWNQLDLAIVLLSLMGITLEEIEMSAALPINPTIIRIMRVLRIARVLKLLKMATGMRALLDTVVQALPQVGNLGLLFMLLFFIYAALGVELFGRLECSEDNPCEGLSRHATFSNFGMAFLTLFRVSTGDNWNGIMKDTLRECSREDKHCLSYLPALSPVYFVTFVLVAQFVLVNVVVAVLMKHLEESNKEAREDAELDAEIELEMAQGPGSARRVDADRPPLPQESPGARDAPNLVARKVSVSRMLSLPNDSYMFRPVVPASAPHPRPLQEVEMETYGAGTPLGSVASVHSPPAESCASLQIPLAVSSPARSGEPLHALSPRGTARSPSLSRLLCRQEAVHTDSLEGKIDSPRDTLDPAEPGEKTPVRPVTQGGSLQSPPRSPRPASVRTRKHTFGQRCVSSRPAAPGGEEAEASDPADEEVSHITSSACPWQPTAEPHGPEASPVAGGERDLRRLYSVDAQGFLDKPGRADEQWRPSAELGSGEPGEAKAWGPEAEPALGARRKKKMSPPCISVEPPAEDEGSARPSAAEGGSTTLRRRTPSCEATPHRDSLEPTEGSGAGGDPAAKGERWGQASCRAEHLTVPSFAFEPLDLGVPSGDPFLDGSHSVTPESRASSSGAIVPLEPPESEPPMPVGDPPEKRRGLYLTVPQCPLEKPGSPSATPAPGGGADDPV
Sequence of Protein-tyrosine kinase 2-beta (Q14289 whole entry): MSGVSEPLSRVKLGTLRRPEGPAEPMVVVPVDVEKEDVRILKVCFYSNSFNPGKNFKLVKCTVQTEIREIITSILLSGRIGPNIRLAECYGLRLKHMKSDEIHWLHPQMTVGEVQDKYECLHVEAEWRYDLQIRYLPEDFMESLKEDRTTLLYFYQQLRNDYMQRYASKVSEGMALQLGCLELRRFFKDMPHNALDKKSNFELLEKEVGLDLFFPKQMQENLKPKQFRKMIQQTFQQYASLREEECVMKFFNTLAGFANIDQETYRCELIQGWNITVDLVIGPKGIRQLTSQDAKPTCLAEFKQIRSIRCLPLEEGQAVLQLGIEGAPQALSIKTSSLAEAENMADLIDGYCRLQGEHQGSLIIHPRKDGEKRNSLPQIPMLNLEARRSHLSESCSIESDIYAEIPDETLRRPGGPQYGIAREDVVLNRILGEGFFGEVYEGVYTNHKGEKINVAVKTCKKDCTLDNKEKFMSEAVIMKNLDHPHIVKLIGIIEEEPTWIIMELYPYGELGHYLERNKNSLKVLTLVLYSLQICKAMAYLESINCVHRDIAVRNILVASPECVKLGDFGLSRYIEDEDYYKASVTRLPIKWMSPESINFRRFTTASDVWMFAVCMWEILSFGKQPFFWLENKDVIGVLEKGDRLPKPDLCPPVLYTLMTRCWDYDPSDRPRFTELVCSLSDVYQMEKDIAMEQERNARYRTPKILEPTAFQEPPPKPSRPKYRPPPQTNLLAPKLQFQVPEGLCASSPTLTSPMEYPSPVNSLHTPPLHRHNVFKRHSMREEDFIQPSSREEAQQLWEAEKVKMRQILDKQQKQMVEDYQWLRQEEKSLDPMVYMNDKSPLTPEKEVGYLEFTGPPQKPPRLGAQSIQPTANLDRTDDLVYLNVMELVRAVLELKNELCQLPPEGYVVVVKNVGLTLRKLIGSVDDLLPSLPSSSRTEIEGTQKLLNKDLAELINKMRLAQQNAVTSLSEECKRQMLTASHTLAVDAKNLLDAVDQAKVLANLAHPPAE

With `CC(C)Oc1cc(NC(=O)C[S+]([O-])CC(=O)Nc2cccc(C(F)(F)F)c2)c(Cl)cc1Cl` (stereo unspecified) the EC50 [1] was 3.23 µM (active).

For `COc1ccc(CCNc2oc(COc3ccc(Br)cc3)nc2C#N)cc1OC`, the EC50 [2] was 10.5 µM (active), the IC50 [3] was 5.86 µM (active) and the IC50 [4] was > 20 µM (inactive). For the same molecule, the EC50 [5] was 12.8 µM (active), the IC50 [6] was 8.84 µM (active) and the IC50 [7] was 5.07 µM (active).

With `COc1ccc(N(C)C(=O)c2ccc3nc(-c4ccccc4)c(-c4ccccc4)nc3c2)cc1` the CC50 [8] was 12.8 µM (active) and the EC50 [1] was 3.17 µM (active).

With `Cc1cc(C)cc(OCC(=O)Nc2ccc(N3CCCC3)cc2)c1` the IC50 [9] was > 50 µM (inactive), the IC50 [10] was 1.56 µM (active) and the IC50 [11] was 7.74 µM (active).

In the case of `COc1ccc(-n2c(C)c([N+](=O)[O-])c3ccc(O)c(CN4CCCCC4)c32)cc1`, the EC50 [2] is reported as 2.77 µM (active), the IC50 [3] is reported as 2.1 µM (active) and the IC50 [4] is reported as > 20 µM (inactive). The EC50 [5] was > 20 µM (inactive), the IC50 [6] was > 20 µM (inactive) and the IC50 [7] was 2.39 µM (active).

In the case of `CCCCN1C(=O)/C(=N\Nc2ccccc2OC)c2ccccc21`, the IC50 [12] is reported as 28.7 µM (active) and the IC50 [13] is reported as 87.9 µM (active).

In the case of `Cc1cc(C(=O)NCCc2ccc(O)c(O)c2)c(C)o1`, the IC50 [12] is reported as > 100 µM (inactive) and the IC50 [13] is reported as > 100 µM (inactive).

In the case of `CCCCc1c(-c2ccccc2OC)ncn1CCc1cccc(F)c1`, the EC50 [14] is reported as 2.73 µM (active), the EC50 [15] is reported as > 29.9 µM (inactive) and the IC50 [16] is reported as 4.33 µM (active). For the same molecule, the IC50 [17] was 15.3 µM (inactive).

In the case of `CC[C@@H]([C@H](C)O)n1ncn(-c2ccc(N3CCN(c4ccc(OC[C@@H]5CO[C@@](Cn6cncn6)(c6ccc(F)cc6F)C5)cc4)CC3)cc2)c1=O`, the IC50 [18] is reported as > 10 µM (inactive) and the IC50 [19] is reported as > 10 µM (inactive).

With `CCCCn1c(/C=N/Nc2nc3ccccc3[nH]2)nc2ccccc21` the EC50 [20] was 1.66 µM (active), the EC50 [21] was 3.74 µM (active) and the AC50 [22] was 3.54 µM (active). The EC50 [23] was > 350 µM (not active) and the EC50 [24] was 43.7 µM (active).

For `C[C@]12CC[C@@H]3c4ccc(O)cc4CC[C@H]3[C@@H]1CC[C@@H]2OC(=O)CCC1CCCC1` [ESTRADIOL CYPIONATE], the IC50 [18] was > 10 µM (inactive), the CC50 [25] was 30.6 µM (active) and the IC50 [19] was > 10 µM (inactive).

For `NCCc1ccc(O)cc1` [TYRAMINE], the EC50 [14] was 0.178 µM (active), the EC50 [15] was > 29.9 µM (inactive) and the AC50 [26] was “inconclusive”. For the same molecule, the IC50 [16] was 0.882 µM (active) and the IC50 [17] was > 29.9 µM (inactive).
